Source: patent US20080009418A1, “Selective Inhibitors” (Alchemia LTD., priority 2004, published 2008)

What was measured:
Human melanocortin (MC5) = molecular target: T1, Human melanocortin (MC5) (Homo sapiens, UniProt P33032); experiment: Radioligand binding, human melanocortin MC5 membranes, FlashPlate, [125I]-NDP-αMSH; settings: compound at 10 μM; [125I]-NDP-αMSH
T1 construct: purchased Perkin Elmer Biosignal
Procedure, shortened: (§1)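 Cloned human receptor membranes were coated onto FlashPlate wells and incubated with radioligand and compound (added from a 0.5 mM DMSO daughter plate) for 1 hour at room temperature in the dark. Scintillation counting gave percent inhibition, with DMSO defining total and reference ligand defining non-specific binding.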

Human μ-opioid (MOP) = molecular target: T2, Human μ-opioid (MOP) (Homo sapiens, UniProt P35372); experiment: Radioligand binding, human μ-opioid (MOP) membranes, FlashPlate, [3H]-Naloxone; settings: compound at 10 μM; [3H]-Naloxone
T2 construct: purchased Perkin Elmer Biosignal
Procedure, shortened: as §1

Human Melanocortin (MC4) = molecular target: T3, Human Melanocortin (MC4) (Homo sapiens, UniProt P32245); experiment: Radioligand binding, human melanocortin MC4 membranes, FlashPlate, [125I]-NDP-αMSH; settings: compound at 10 μM; [125I]-NDP-αMSH
T3 construct: purchased Perkin Elmer Biosignal
Procedure, shortened: as §1

Human opioid (ORL1) = molecular target: T4, Human opioid (ORL1) (Homo sapiens, UniProt P41146); experiment: Radioligand binding, human opioid ORL1 membranes, FlashPlate, [125I]-Nociceptin; settings: compound at 10 μM; [125I]-Nociceptin
T4 construct: purchased Perkin Elmer Biosignal
Procedure, shortened: as §1

Human δ-opioid (DOP) = molecular target: T5, Human δ-opioid (DOP) (Homo sapiens, UniProt P41143); experiment: Radioligand binding, human δ-opioid (DOP) membranes, FlashPlate, [3H]-Bremazocine; settings: compound at 10 μM; [3H]-Bremazocine
T5 construct: purchased Perkin Elmer Biosignal
Procedure, shortened: as §1

Human κ-Opioid (KOP) = molecular target: T6, Human κ-Opioid (KOP) (Homo sapiens, UniProt P41145); experiment: Radioligand binding, human κ-opioid (KOP) membranes, filtration, [3H]-Diprenorphine; settings: compound at 10 μM; [3H]-Diprenorphine
T6 construct: purchased Perkin Elmer Biosignal
Procedure, shortened: (§2)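 Percent inhibition of radioligand binding measured on recombinant human membranes: NK1 with [125I]-Substance P, KOP with [3H]-Diprenorphine. Incubation 1 h at room temperature, then harvest onto 0.3% PEI-soaked filters, cold Tris-HCl pH 7.4 washes and scintillation counting; non-specific binding from reference ligand wells.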

Human Melanocortin (MC3) = molecular target: T7, Human Melanocortin (MC3) (Homo sapiens, UniProt P41968); experiment: Radioligand binding, human melanocortin MC3 membranes, FlashPlate, [125I]-NDP-αMSH; settings: compound at 10 μM; [125I]-NDP-αMSH
T7 construct: purchased Perkin Elmer Biosignal
Procedure, shortened: as §1

Human neurokinin (NK1) = molecular target: T8, Human neurokinin (NK1) (Homo sapiens, UniProt P25103); experiment: Radioligand binding, human neurokinin NK1 membranes, filtration, [125I]-Substance P; settings: compound at 10 μM; [125I]-Substance P
T8 construct: purchased Perkin Elmer Biosignal
Procedure, shortened: as §2

Mouse urotensin (mUR2) = molecular target: T9, Mouse urotensin (mUR2) (Mus musculus, UniProt Q8VIH9); experiment: Radioligand binding, mouse urotensin mUR2 membranes, FlashPlate, [125I]-Urotensin II; settings: compound at 10 μM; [125I]-Urotensin II
T9 construct: purchased Perkin Elmer Biosignal
T9 sequence (Q8VIH9 1-385): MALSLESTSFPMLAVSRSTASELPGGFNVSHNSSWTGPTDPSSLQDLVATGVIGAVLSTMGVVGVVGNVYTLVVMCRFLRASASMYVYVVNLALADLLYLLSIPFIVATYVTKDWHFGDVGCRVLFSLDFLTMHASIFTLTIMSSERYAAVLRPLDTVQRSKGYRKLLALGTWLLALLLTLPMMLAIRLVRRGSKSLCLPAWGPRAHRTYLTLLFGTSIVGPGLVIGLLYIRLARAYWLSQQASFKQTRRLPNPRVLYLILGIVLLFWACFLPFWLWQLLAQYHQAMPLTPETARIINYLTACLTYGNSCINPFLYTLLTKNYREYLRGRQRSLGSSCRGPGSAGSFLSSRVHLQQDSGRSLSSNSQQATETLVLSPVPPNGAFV
Procedure, shortened: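 Cloned mouse urotensin (mUR2) receptor membranes from Perkin Elmer Biosignal were immobilized in FlashPlate microplates using a proprietary coating. Each well got 19.5 μl buffer, then 0.5 μl of DMSO, reference ligand, or compound. Adding 5 μl of [125I]-Urotensin II, diluted to 5× final concentration in binding buffer, started binding. Plates were sealed with TopSeal-A and incubated 1 hour at room temperature in the dark. Wells were counted for 30 seconds each on a TopCount after a 60-second delay, and percentage inhibition was calculated.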

[1] = molecular target: T10, Human melanin-concentrating hormone (MCH1) (Homo sapiens, UniProt Q99705); experiment: Radioligand binding, human melanin-concentrating hormone MCH1 membranes, FlashPlate, [125I]-S36057; settings: compound at 10 μM; [125I]-S36057
T10 construct: purchased Perkin Elmer Biosignal
Procedure, shortened: as §1

[2] = molecular target: T11, Human neuropeptide Y (NPY-Y1) (Homo sapiens, UniProt P25929); experiment: Radioligand binding, human neuropeptide Y NPY-Y1 membranes, FlashPlate, [125I]-PYY; settings: compound at 10 μM; [125I]-PYY
T11 construct: purchased Perkin Elmer Biosignal
T11 sequence (P25929 1-384): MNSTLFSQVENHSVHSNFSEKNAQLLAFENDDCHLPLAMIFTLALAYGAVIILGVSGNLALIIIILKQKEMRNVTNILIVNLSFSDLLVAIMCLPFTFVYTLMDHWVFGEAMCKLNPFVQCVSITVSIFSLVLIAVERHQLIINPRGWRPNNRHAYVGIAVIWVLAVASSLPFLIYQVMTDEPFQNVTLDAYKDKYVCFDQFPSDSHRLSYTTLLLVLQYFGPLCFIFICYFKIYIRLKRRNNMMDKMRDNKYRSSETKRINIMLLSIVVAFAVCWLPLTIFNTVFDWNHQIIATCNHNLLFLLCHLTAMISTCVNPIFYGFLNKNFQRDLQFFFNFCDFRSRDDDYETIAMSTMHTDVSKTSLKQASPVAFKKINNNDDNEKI
Procedure, shortened: as §1

T8 sequence (P25103 whole entry): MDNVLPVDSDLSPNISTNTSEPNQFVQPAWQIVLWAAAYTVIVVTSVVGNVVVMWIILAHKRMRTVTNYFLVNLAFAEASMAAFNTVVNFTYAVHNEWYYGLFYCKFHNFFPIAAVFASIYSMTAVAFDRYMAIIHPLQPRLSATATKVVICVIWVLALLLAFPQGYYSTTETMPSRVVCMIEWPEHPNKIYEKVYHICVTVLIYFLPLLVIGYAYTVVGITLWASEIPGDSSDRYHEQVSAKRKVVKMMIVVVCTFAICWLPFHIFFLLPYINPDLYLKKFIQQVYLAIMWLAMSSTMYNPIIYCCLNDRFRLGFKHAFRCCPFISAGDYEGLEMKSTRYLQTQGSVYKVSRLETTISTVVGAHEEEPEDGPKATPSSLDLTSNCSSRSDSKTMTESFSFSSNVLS
T1 sequence (P33032 whole entry): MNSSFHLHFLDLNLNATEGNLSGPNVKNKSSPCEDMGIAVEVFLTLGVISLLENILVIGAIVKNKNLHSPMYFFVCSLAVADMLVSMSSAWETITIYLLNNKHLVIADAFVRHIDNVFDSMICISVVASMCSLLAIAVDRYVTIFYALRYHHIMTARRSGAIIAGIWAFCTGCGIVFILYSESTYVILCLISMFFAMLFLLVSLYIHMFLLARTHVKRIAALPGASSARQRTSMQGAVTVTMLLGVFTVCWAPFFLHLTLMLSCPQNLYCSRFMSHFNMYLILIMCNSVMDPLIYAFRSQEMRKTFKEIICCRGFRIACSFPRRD
T4 sequence (P41146 whole entry): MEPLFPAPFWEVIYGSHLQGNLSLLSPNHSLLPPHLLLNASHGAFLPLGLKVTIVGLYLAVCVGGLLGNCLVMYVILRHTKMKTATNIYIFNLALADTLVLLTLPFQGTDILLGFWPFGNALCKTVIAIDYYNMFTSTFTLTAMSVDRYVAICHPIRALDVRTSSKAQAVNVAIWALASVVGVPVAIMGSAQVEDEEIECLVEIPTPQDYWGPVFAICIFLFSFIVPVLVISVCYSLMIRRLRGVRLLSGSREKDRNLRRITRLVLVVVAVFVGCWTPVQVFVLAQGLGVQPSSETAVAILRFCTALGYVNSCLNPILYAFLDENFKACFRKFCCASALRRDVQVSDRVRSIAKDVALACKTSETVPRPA
T2 sequence (P35372 whole entry): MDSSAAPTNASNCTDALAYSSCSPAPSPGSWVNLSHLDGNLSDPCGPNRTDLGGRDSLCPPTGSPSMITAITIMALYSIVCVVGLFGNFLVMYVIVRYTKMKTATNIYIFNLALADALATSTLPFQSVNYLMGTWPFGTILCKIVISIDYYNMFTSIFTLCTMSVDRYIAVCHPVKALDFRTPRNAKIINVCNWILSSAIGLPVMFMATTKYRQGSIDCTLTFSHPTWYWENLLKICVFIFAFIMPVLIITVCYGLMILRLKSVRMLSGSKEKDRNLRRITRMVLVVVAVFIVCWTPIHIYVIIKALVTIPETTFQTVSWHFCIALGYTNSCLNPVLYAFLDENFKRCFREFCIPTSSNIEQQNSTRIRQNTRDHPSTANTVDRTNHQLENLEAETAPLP
T5 sequence (P41143 whole entry): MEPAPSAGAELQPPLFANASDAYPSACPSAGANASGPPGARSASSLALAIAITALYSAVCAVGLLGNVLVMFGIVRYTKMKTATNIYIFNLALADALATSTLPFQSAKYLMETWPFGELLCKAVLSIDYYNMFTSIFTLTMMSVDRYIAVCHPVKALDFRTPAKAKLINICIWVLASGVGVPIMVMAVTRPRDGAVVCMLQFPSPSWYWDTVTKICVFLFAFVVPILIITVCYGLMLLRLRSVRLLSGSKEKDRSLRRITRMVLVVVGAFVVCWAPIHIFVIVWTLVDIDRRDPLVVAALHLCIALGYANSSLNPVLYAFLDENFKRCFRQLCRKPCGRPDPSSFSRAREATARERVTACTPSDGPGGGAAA
T10 sequence (Q99705 whole entry): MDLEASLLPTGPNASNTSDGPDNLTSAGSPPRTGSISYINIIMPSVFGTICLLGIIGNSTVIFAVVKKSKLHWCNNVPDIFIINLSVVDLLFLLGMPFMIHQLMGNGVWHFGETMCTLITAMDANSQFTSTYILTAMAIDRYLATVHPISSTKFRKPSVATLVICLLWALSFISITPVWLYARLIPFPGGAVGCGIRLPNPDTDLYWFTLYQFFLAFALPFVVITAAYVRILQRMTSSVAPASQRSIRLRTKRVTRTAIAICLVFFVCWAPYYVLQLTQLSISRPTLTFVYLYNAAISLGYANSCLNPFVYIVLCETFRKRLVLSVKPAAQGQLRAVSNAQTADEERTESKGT
T6 sequence (P41145 whole entry): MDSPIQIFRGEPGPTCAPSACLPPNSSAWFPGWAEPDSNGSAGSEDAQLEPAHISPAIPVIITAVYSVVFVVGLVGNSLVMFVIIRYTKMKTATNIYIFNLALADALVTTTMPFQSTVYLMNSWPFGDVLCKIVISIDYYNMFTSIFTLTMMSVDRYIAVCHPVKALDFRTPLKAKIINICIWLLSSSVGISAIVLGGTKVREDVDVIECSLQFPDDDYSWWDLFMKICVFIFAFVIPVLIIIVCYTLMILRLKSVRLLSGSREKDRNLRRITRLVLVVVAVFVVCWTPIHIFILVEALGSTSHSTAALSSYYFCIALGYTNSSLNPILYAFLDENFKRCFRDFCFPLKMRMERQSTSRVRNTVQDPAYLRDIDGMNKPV
T7 sequence (P41968 whole entry): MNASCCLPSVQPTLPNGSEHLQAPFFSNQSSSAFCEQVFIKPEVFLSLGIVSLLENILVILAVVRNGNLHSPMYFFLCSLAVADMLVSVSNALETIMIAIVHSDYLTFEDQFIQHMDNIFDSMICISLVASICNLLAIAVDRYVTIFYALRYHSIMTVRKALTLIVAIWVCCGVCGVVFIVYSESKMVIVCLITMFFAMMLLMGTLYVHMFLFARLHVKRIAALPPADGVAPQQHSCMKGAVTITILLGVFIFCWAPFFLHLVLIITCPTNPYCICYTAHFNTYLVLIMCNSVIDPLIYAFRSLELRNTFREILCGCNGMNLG
T3 sequence (P32245 whole entry): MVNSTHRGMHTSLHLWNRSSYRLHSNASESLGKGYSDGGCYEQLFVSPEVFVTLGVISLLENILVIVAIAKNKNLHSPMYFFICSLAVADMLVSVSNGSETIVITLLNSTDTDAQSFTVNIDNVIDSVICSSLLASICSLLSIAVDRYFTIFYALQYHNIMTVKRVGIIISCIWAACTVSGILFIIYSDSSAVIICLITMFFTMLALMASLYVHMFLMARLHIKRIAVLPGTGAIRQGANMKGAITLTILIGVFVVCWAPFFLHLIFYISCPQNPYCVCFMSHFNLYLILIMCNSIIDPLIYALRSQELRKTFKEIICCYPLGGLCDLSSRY

| Compound | A5: inhibition of radioligand binding, human melanocortin (MC5) (Human melanocortin (MC5)) | A7: inhibition of radioligand binding, human μ-opioid (MOP) (Human μ-opioid (MOP)) | A4: inhibition of radioligand binding, human melanocortin (MC4) (Human Melanocortin (MC4)) | A10: inhibition of radioligand binding, human opioid (ORL1) (Human opioid (ORL1)) | A1: inhibition of radioligand binding, human δ-opioid (DOP) (Human δ-opioid (DOP)) | A2: inhibition of radioligand binding, human κ-opioid (KOP) (Human κ-Opioid (KOP)) | A3: inhibition of radioligand binding, human melanocortin (MC3) (Human Melanocortin (MC3)) | A8: inhibition of radioligand binding, human neurokinin (NK1) (Human neurokinin (NK1)) | A11: inhibition of radioligand binding, mouse urotensin (mUR2) (Mouse urotensin (mUR2)) | A6: inhibition of radioligand binding, human melanin-concentrating hormone (MCH1) [1] | A9: inhibition of radioligand binding, human neuropeptide Y (NPY-Y1) [2] |
| --- | --- | --- | --- | --- | --- | --- | --- | --- | --- | --- | --- |
| CSC1O[C@H](COCc2ccccc2)[C@@H](O)[C@@H](OCc2ccc(-c3ccccc3)cc2)[C@H]1NC(=O)CNC(=N)N (stereo partly shown) [compound 284] | + (“+” indicates greater than 50% inhibition at 10 μM) | − (“−” indicates less than 50% inhibition at 10 μM) | + (“+” indicates greater than 50% inhibition at 10 μM) | − (“−” indicates less than 50% inhibition at 10 μM) | − (“−” indicates less than 50% inhibition at 10 μM) | − (“−” indicates less than 50% inhibition at 10 μM) | − (“−” indicates less than 50% inhibition at 10 μM) | + (“+” indicates greater than 50% inhibition at 10 μM) | − (“−” indicates less than 50% inhibition at 10 μM) | − (“−” indicates less than 50% inhibition at 10 μM) | − (“−” indicates less than 50% inhibition at 10 μM) |
| CSC1O[C@H](COCc2ccccc2)[C@@H](O)[C@@H](OCc2ccc(-c3ccccc3)cc2)[C@H]1NC(=O)CCN (stereo partly shown) [compound 285] | − (“−” indicates less than 50% inhibition at 10 μM) | − (“−” indicates less than 50% inhibition at 10 μM) | − (“−” indicates less than 50% inhibition at 10 μM) | − (“−” indicates less than 50% inhibition at 10 μM) | − (“−” indicates less than 50% inhibition at 10 μM) | − (“−” indicates less than 50% inhibition at 10 μM) | − (“−” indicates less than 50% inhibition at 10 μM) | + (“+” indicates greater than 50% inhibition at 10 μM) | − (“−” indicates less than 50% inhibition at 10 μM) | − (“−” indicates less than 50% inhibition at 10 μM) | − (“−” indicates less than 50% inhibition at 10 μM) |
| CSC1O[C@H](COCc2ccccc2)[C@@H](O)[C@@H](OCc2ccc(-c3ccccc3)cc2)[C@H]1NC(=O)CCNC(=N)N (stereo partly shown) [compound 286] | + (“+” indicates greater than 50% inhibition at 10 μM) | − (“−” indicates less than 50% inhibition at 10 μM) | − (“−” indicates less than 50% inhibition at 10 μM) | − (“−” indicates less than 50% inhibition at 10 μM) | − (“−” indicates less than 50% inhibition at 10 μM) | − (“−” indicates less than 50% inhibition at 10 μM) | − (“−” indicates less than 50% inhibition at 10 μM) | + (“+” indicates greater than 50% inhibition at 10 μM) | − (“−” indicates less than 50% inhibition at 10 μM) | − (“−” indicates less than 50% inhibition at 10 μM) | − (“−” indicates less than 50% inhibition at 10 μM) |
| CSC1O[C@H](COCc2ccccc2)[C@@H](O)[C@@H](OCc2ccc(-c3ccccc3)cc2)[C@H]1NC(=O)CCCNC(=N)N (stereo partly shown) [compound 287] | − (“−” indicates less than 50% inhibition at 10 μM) | − (“−” indicates less than 50% inhibition at 10 μM) | − (“−” indicates less than 50% inhibition at 10 μM) | − (“−” indicates less than 50% inhibition at 10 μM) | − (“−” indicates less than 50% inhibition at 10 μM) | − (“−” indicates less than 50% inhibition at 10 μM) | − (“−” indicates less than 50% inhibition at 10 μM) | + (“+” indicates greater than 50% inhibition at 10 μM) | − (“−” indicates less than 50% inhibition at 10 μM) | − (“−” indicates less than 50% inhibition at 10 μM) | − (“−” indicates less than 50% inhibition at 10 μM) |
| CSC1O[C@H](COCc2ccc(Cl)cc2)[C@@H](O)[C@@H](OCc2ccc(-c3ccccc3)cc2)[C@H]1NC(=O)CN (stereo partly shown) [compound 288] | − (“−” indicates less than 50% inhibition at 10 μM) | − (“−” indicates less than 50% inhibition at 10 μM) | − (“−” indicates less than 50% inhibition at 10 μM) | − (“−” indicates less than 50% inhibition at 10 μM) | − (“−” indicates less than 50% inhibition at 10 μM) | − (“−” indicates less than 50% inhibition at 10 μM) | − (“−” indicates less than 50% inhibition at 10 μM) | + (“+” indicates greater than 50% inhibition at 10 μM) | − (“−” indicates less than 50% inhibition at 10 μM) | − (“−” indicates less than 50% inhibition at 10 μM) | − (“−” indicates less than 50% inhibition at 10 μM) |
